The source of these data is patent US20150359771A1, “TREATING PULMONARY CONDITIONS” (priority 2013, published 2015).

The test system of one experiment is NFκB. In words: NFκB protein expression in mouse primary lung endothelial cells (MLEC), direct treatment, Western blot. Type of experiment: cell-based. As to conditions: theophylline 1 μM, leucine 0.5 mM, resveratrol 200 nM, FIG. 1. In general terms: Immunoblotting shows a protein as a band on a membrane.
A further experiment has as its system eotaxin. In words: eotaxin secretion from MLEC, direct treatment, ELISA. Type of experiment: cell-based, mouse. As to conditions: theophylline 1 μM, leucine 0.5 mM, resveratrol 200 nM, FIG. 5. From the text:
(§1) Interleukin 1-β, eotaxin, and interleukin 6 were all measured via enzyme-linked immunosorbent assay using specific antibodies for each cytokine (Abcam, Cambridge, Mass.) and a horseradish peroxidase-based second antibody detection system, with chromogenic detection at 450 nm using a microplate reader (Synergy HT, BioTek Instruments, Winooski, Vt.).
(In general: An ELISA detects its analyte on a solid surface through an enzyme-linked reagent.)

Experiment [1] relates to IL 6. In words: cellular IL 6 content in MLEC, direct treatment. The class given is cell-based, mouse. The note with it: theophylline 1 μM, leucine 0.5 mM, resveratrol 200 nM, FIG. 7. On the procedure:
(§2) Cells were grown in Dulbecco's modified eagle's medium (DMEM) containing a growth factor supplement (Cell Biologics # M1 166) which included 5% fetal bovine serum (FBS), heparin, EGF, hydrocortisone, L-glutamine and antibiotics at 37° C. in 5% CO2.
as §1
(§3) Following treatment, western blots or ELISA assays were performed on the MLEC to determine the level of various indicators of airway diseases, such as NFκB protein expression, eotaxin secretion, IL1-β secretion, cellular IL6 content or secretion, adiponectin receptor 1 protein expression, and adiponectin receptor 2 protein expression.

The next experiment relates to phospho-NFκB. Description: phospho-NFκB protein expression in MLEC, direct treatment, Western blot. The class given is cell-based, mouse. The note with it: theophylline 1 μM, leucine 0.5 mM, resveratrol 200 nM. On the procedure:
as §2
For Western blot, 2 μg (for NFκB) or 4 μg (for phospho-NFκB) of protein from the cell lysate was resolved on 10% Tris/HCL polyacrylamide gels (Criterion precast gel, Bio-Rad Laboratories, Hercules, Calif.), transferred to PVDF membranes (NFκB and phospho-NFκB), incubated in blocking buffer (3% BSA in TBS) and then incubated with primary antibody, washed and incubated with secondary horseradish peroxidase-conjugated antibody.
as §3

A further experiment has as its system IL1-β. Description: IL1-β secretion from MLEC, direct treatment, ELISA. The note with it: theophylline 1 μM, leucine 0.5 mM, resveratrol 200 nM, FIG. 4. The class given is cell-based, mouse.
Excerpt: as §1

In experiment [2] the test system is IL 6. Description: IL 6 secretion from MLEC, direct treatment, ELISA. The class given is cell-based, mouse. The note with it: FIG. 8. On the procedure: as §2, §1, §3

For the compound `Cn1c(=O)c2[nH]cnc2n(C)c1=O` [theophylline], the “effect on NFκB protein expression relative to control” value in the experiment with NFκB was “no independent effect”. For the same compound, in the experiment on eotaxin, the “effect on eotaxin secretion (in words)” value was “no significant effect”. The “effect on cellular expression of IL 6” value in the experiment with IL 6 [1] is “unaffected”. Also, in the experiment with phospho-NFκB, the “effect on phospho-NFκB levels” value is listed as “no effect”. Besides, the “effect on IL1-β secretion (in words)” value in the experiment with IL1-β is on record as “no significant independent effect”. For the same compound, the “effect on IL 6 secretion (in words)” value with IL 6 [2] was “no significant independent effect”.
For TNFα, the “effect on eotaxin secretion (in words)” value in the experiment on eotaxin is given as “no significant effect”. Also, the “effect on IL1-β secretion (in words)” value in the experiment on IL1-β is listed as “increase”. Besides, in the experiment on IL 6 [2], the “effect on IL 6 secretion (in words)” value is reported as “significant increase”.
